Source: US7785846B2, “Method for the production of methionine” (Evonik Degussa GmbH, priority 2003, dated 2010)
Converted amounts (≈) assume the structure as drawn.

How the values were obtained:
[1] = physchem; settings: water
[2] = under these conditions (20° C. and 70° C.), compared with water

solubility ([1]; 20 °C): ~30 mg/mL (≈ 201 mM) | solubility ([1]; 70 °C): > 90 mg/mL | solubility in the fermentation broth [2]: comparable order of magnitude
SMILES: CSCC[C@H](N)C(=O)O [methionine]
